# Laboratory results as given in PubChem BioAssay (NCI).
#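 Cells were grown in 96-well plates and exposed to each compound for 48 hours at five concentrations; endpoints were interpolated linearly between bracketing concentrations, or set to the highest concentration if not reached. GI50 is the concentration that inhibits growth by half. TGI marks complete inhibition of growth.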
# Experiments:
# Test in all cases: growth of human tumour cells (NCI), 48 h
# [1] = system: HCT-15 colon
# [2] = system: KM12 colon
# [3] = system: SF-539 CNS
# [4] = system: NCI-H460 lung
# [5] = system: NCI/ADR-RES ovarian
# [6] = system: K-562 leukemia
# [7] = system: MDA-N
# [8] = system: T-47D breast
# [9] = system: M14 melanoma
# [10] = system: HCC-2998 colon
Structure (SMILES),TGI [1] [µM],TGI [2] [µM],TGI [3] [µM],TGI [4] [µM],TGI [5] [µM],TGI [6] [µM],TGI [7] [µM],TGI [8] [µM],TGI [9] [µM],TGI [10] [µM],GI50 [1] [µM],GI50 [2] [µM],GI50 [3] [µM],GI50 [4] [µM],GI50 [5] [µM],GI50 [8] [µM],GI50 [10] [µM],GI50 [9] [µM],GI50 [6] [µM]
O=c1/c(=C/c2ccc(-c3ccc(Cl)cc3Cl)o2)sc2n1[C@@H](c1ccc3c(c1)OCO3)C=C(c1cc(F)c(Cl)cc1Cl)N=2,> 100,> 100,> 100,> 100,> 100,> 100,> 100,> 100,> 100,–,–,–,–,–,–,–,–,–,–
C=C(C(=O)OC)[C@H]1CC/C(C)=C/CC/C(C)=C/CC[C@@]2(C)O[C@@H]2C1,31.7,37.6,32.2,–,52.1,25.7,36.4,44.7,46.5,30.8,–,–,–,–,–,–,–,–,–
CC(C)CC(NC(=O)C(COc1ccc([N+](=O)[O-])cc1)Cc1ccccc1)C(=O)Nc1ccccc1 (stereo not drawn),> 100,21.5,18.9,13.2,43.3,> 100,> 100,–,60.8,80.2,–,–,–,–,–,–,–,–,–
O=S(=O)(O)c1ccc(Nc2ccnc3cc(Cl)ccc23)cc1,> 100,> 100,> 100,–,> 100,> 100,> 100,> 100,> 100,> 100,–,–,–,–,–,–,–,–,–
CN/N=C(\C(=O)Nc1ccc([N+](=O)[O-])cc1[N+](=O)[O-])C1NC(=O)NC1=O (stereo not drawn),> 100,> 100,> 100,> 100,–,> 100,–,–,> 100,> 100,–,–,–,–,–,–,–,–,–
CCOC(=O)C1=C(C)N(c2ccc(C)cc2)C2(O)C=CC(=O)C3=C(O)c4ccccc4C(=O)C312 (stereo not drawn),> 100,> 100,44.1,> 100,> 100,–,69.5,–,> 100,59.4,–,–,–,–,–,–,–,–,–
S=C(Nc1ccc2c(c1)Cc1ccccc1-2)Nc1ccc2c(c1)Cc1ccccc1-2,> 100,> 100,–,> 100,> 100,74.5,> 100,> 100,> 100,> 100,–,–,–,–,–,–,–,–,–
COc1cccc(C2CC(=O)c3cccn32)c1 (stereo not drawn),> 100,> 100,> 100,–,> 100,> 100,–,> 100,> 100,> 100,–,–,–,–,–,–,–,–,–
CC(=O)Nc1ccc(/C=C(\NC(=O)c2ccccc2)C(=O)NNS(=O)(=O)c2ccc(C)cc2)cc1,41.1,> 100,> 100,> 100,–,> 100,–,–,> 100,> 100,–,–,–,–,–,–,–,–,–
Oc1ccc2ccccc2c1OCc1nnc(CCCCCCCCc2nnc(COc3c(O)ccc4ccccc34)o2)o1,> 100,> 100,–,> 100,> 100,> 100,> 100,–,> 100,> 100,–,–,–,–,–,–,–,–,–
C[n+]1c(-c2ccc(/C=N/Nc3ccnc(N/N=C/c4ccc(-c5cn6ccccc6[n+]5C)cc4)n3)cc2)cn2ccccc21,> 100,> 100,40.1,> 100,> 100,–,> 100,> 100,> 100,> 100,–,–,–,–,–,–,–,–,–
c1ccc(CNc2ncnc3n[nH]nc23)cc1,> 100,> 100,> 100,–,> 100,> 100,> 100,> 100,> 100,> 100,–,–,–,–,–,–,–,–,–
CCOC(=O)c1cn(C)nc1N/C(C)=C\C(=O)c1ccccc1,> 100,> 100,> 100,> 100,> 100,> 100,–,> 100,> 100,> 100,–,–,–,–,–,–,–,–,–
CC(=O)[C@H]1CCC2[C@@H]3CC=C4C(O)C(OS(=O)(=O)O)CC[C@]4(C)C3CC[C@@]21C (stereo partly drawn),> 100,> 100,> 100,> 100,> 100,> 100,–,–,–,> 100,–,–,–,–,–,–,–,–,–
C=C1CC(OC)(C(O)C(=O)N[C@H]2OCO[C@H]3C2O[C@H](C[C@H](O)COC)C(C)(C)C3OC)O[C@H](C)[C@@H]1C (stereo partly drawn),> 0.00772,–,> 0.00772,> 0.00772,> 0.00772,> 0.00772,–,–,–,> 0.00772,–,–,–,–,–,–,–,–,–
CN(C)C=Nc1nncc2n[nH]nc12,> 100,> 100,> 100,> 100,> 100,> 100,> 100,> 100,> 100,–,–,–,–,–,–,–,–,–,–
CN(CCN(C)C(=O)CCn1ccc(=O)[nH]c1=O)C(=O)CCn1ccc(=O)[nH]c1=O,> 100,> 100,> 100,> 100,–,> 100,–,–,> 100,> 100,–,–,–,–,–,–,–,–,–
O=C(NCc1ccccc1)c1c(O)c2ccccc2[nH]c1=O,> 100,> 100,> 100,> 100,> 100,> 100,> 100,–,–,> 100,–,–,–,–,–,–,–,–,–
O=C(NCCCCNCCCNC(=O)OCc1ccccc1)OCc1ccccc1,> 100,98.5,43.1,69,> 100,80.7,–,57.8,40.1,38.7,–,–,–,–,–,–,–,–,–
O=C1OC(c2ccccc2)=N/C1=C/N1CCCC1C(=O)O (stereo not drawn),> 100,> 100,> 100,> 100,–,> 100,–,–,> 100,> 100,–,–,–,–,–,–,–,–,–
c1ccc(COc2cccc3cccnc23)cc1,–,> 100,> 100,> 100,–,> 100,–,–,> 100,> 100,–,–,–,–,–,–,–,–,–
Cc1cc(C)c2c(c1)CC1(Cc3c(C)cc(C)cc3C1=O)C2=O (stereo not drawn),> 100,> 100,> 100,> 100,> 100,> 100,> 100,–,> 100,> 100,–,–,–,–,–,–,–,–,–
O=S(=O)(/N=C1/SC(=Nc2ccccc2)N(c2ccccc2)/C1=N/S(=O)(=O)c1ccccc1)c1ccccc1,34.5,71,–,51.6,–,66.6,34.4,–,62.8,48.7,–,–,–,–,–,–,–,–,–

Structure (SMILES),TGI [1] [µM],TGI [2] [µM],TGI [3] [µM],TGI [4] [µM],TGI [5] [µM],TGI [6] [µM],TGI [7] [µM],TGI [8] [µM],TGI [9] [µM],TGI [10] [µM],GI50 [1] [µM],GI50 [2] [µM],GI50 [3] [µM],GI50 [4] [µM],GI50 [5] [µM],GI50 [8] [µM],GI50 [10] [µM],GI50 [9] [µM],GI50 [6] [µM]
CC1(C)CC(=O)C(=CN2C(=O)CNC2=S)C(=O)C1,> 100,> 100,> 100,> 100,> 100,–,> 100,–,> 100,> 100,–,–,–,–,–,–,–,–,–
Cc1ccc([N+](=O)[O-])cc1NC(=O)C(=O)C1CCC2=C(Sc3ccccc3N2)C1=O (stereo not drawn),> 100,> 100,> 100,> 100,> 100,–,> 100,–,> 100,> 100,–,–,–,–,–,–,–,–,–
COc1cc(C2(C)SCCCS2)c(I)c(OC)c1OC,> 100,> 100,> 100,> 100,–,> 100,–,–,> 100,> 100,–,–,–,–,–,–,–,–,–
CCOC(=O)c1cc(-c2ccn(C(C)=O)c2)c(-c2cc(C)co2)[nH]1,> 100,> 100,–,> 100,> 100,> 100,> 100,> 100,> 100,> 100,–,–,–,–,–,–,–,–,–
CCOC(=O)C[n+]1ccc2c([nH]c3cc(OC)ccc32)c1C,> 100,> 100,> 100,> 100,> 100,> 100,–,–,–,> 100,–,–,–,–,–,–,–,–,–
COc1ccc(C2NC(=O)Nc3c2c(=O)oc2c3ccc3ccccc32)cc1 (stereo not drawn),> 100,> 100,> 100,> 100,> 100,> 100,> 100,> 100,> 100,–,–,–,–,–,–,–,–,–,–
COc1ccc(C2=NNC(=O)c3ccccc3N2c2nc(-c3cccs3)nc3ccc(Br)cc23)cc1,> 100,> 100,39.3,> 100,62.4,> 100,–,> 100,> 100,–,–,–,–,–,–,–,–,–,–
c1cc2ccc1CNCCN1CCNCc3ccc(cc3)Oc3ccc(cc3)CNCCN(CCNCc3ccc(cc3)O2)CCNCc2ccc(cc2)Oc2ccc(cc2)CNCC1,20.1,3.22,2.76,3.27,63.5,–,–,3.61,3.38,1.99,4.62,1.77,1.44,1.71,16.7,1.63,0.659,1.7,–
CC(C)c1nccn1Cc1ccc(Cl)cc1Cl,> 100,> 100,> 100,> 100,> 100,> 100,> 100,–,> 100,88.6,–,–,–,–,–,–,–,–,–
O=C(O)CCCc1ccc2c(c1)CC1(C2)Cc2ccc(CCCC(=O)O)cc2C1,> 100,> 100,> 100,–,> 100,> 100,> 100,> 100,> 100,> 100,–,–,–,–,–,–,–,–,–
N#Cc1c(C#N)c(-c2ccccc2)n(/N=C\c2ccccc2)c1N,> 100,> 100,55.1,–,52.5,> 100,> 100,29.1,> 100,89.9,–,–,–,–,–,–,–,–,–
NC1CCCCC1N.O=S(=O)([O-])CCCN1CCN(CCO)CC1.O=S(=O)([O-])CCCN1CCN(CCO)CC1.[Pt+4],> 61.4,> 100,> 100,> 46,> 37,44.8,–,–,–,> 63.4,2.63,13.2,10.7,1.15,1.47,–,9.55,–,4.81
C=C1C(=O)O[C@H]2C/C(C=O)=C\[C@H]3O[C@H]3/C(COC(=O)C(C)C)=C/CC12 (stereo partly drawn),9.43,22.7,47.3,26.8,33.8,10.4,13.4,7,–,27.2,–,–,–,–,–,–,–,–,–
CC1(C)N=C(N)N=C(N)N1c1ccc(OCCCOc2ccccc2)c(Cl)c1,> 100,12.3,15.5,12.4,> 100,> 42.8,–,–,–,13.1,–,–,–,–,–,–,–,–,–
Cn1c(=O)c2sc3cc4c(cc3c2c2ccccc21)sc1c(=O)n(C)c2ccccc2c14,> 100,> 100,> 100,> 100,> 100,–,> 100,> 100,> 100,> 100,–,–,–,–,–,–,–,–,–
CC1(C)O[C@@H](CP(c2cccc3ccccc23)c2cccc3ccccc23)[C@H](CP(c2cccc3ccccc23)c2cccc3ccccc23)O1,> 100,> 100,–,> 100,> 100,> 100,> 100,> 100,> 100,> 100,–,–,–,–,–,–,–,–,–
Cc1ccc2cnc(N)c(C#Cc3cncc(C(=O)Nc4ccc(CN5CCN(C)CC5)c(C(F)(F)F)c4)c3)c2c1,0.731,0.538,0.877,0.819,2.09,0.619,–,–,–,1.3,0.174,0.005,0.275,0.212,0.746,–,0.582,–,0.005
COC(=O)C1=C(C)NC2(C)OC(C)(O)C(C(C)=O)C12C(C)=O (stereo not drawn),> 100,> 100,57.5,> 100,> 100,> 100,> 100,> 100,> 100,–,–,–,–,–,–,–,–,–,–
O=C1OC2C=CC1C1(CCOC1=O)C2 (stereo not drawn),> 100,> 100,> 100,> 100,–,> 100,–,–,> 100,> 100,–,–,–,–,–,–,–,–,–
CCCCCCCCCCCCCCCCNc1ccn(C2CC(OP(=O)(O)OCC3OC(n4cc(CC)c(=O)[nH]c4=O)CC3O)C(CO)O2)c(=O)n1 (stereo not drawn),72.5,29.6,34.4,–,84.9,44.9,–,> 100,33.2,88,–,–,–,–,–,–,–,–,–
CC1(C)CC2(C)OC(=N)C1(C#N)C2(C#N)C#N (stereo not drawn),4.84,29.4,24.5,–,29.5,33.5,20.2,37.7,23.8,24.4,–,–,–,–,–,–,–,–,–
COc1ccc(NS(=O)c2cccc(C)c2)cc1 (stereo not drawn),> 100,> 100,66.7,> 100,> 100,> 100,> 100,–,> 100,33.6,–,–,–,–,–,–,–,–,–
